# Results taken from patent US20250059172A1, “INDAZOLE COMPOUND AND PHARMACEUTICAL” (NIPPON SHINYAKU CO., LTD., priority 2021, published 2025).
# Counter-ions that a name gives are not always drawn.
# Experiments:
# [1] = biological target: human mPGES-1 (Homo sapiens (Human), UniProt O14684); test: mPGES-1 inhibitory activity test; type: biochemical; details: for inhibition at 0.01 µM: 10 nM test compound; for inhibition at 0.1 µM: 100 nM test compound; for IC50: microsomes of CHO-K1 cells expressing human mPGES-1, PGH2 1 μM, PGE2 by HTRF, read-out: mPGES-1 inhibition (IC50 nM)
# Chain of human mPGES-1 (O14684 whole entry): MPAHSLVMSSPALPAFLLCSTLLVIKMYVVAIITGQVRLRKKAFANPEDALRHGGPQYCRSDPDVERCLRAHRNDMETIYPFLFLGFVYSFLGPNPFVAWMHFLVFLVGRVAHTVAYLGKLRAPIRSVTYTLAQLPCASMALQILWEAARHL
# Method in brief: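 PGE2 formation was quantified by HTRF and reported as percent inhibition at 10 and 100 nM compound or as IC50. The 60-second reaction at 4° C used 1 μM PGH2, after a 20-minute 4° C preincubation of compound (1% DMSO final) with glutathione-supplemented (2.5 mM, pH 7.4) microsomes. The microsomes were from transiently transfected CHO-K1 cells expressing human mPGES-1.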
# [2] = test system: human A549 cells; test: Inhibition test of PGE2 production using human A549 cells; type: cell-based; details: IL-1β stimulated A549 cells, 24 h, PGE2 by HTRF, read-out: A549 cell inhibition of PGE2 production IC50
# Method in brief: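 PGE2 (HTRF) and PGF2a (EIA) were quantified in medium after 24 h, 37°C IL-1β stimulation (5 ng/well) of human A549 cells that had received test compound 60 min beforehand (0.1% DMSO, 3% FBS RPMI). IC50 relative to the window between IL-1β-stimulated and unstimulated controls.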
inhibition at 0.01 µM [1] [%],inhibition at 0.1 µM [1] [%],IC50 [2] [nM],IC50 [1] [nM],Compound
64,88,3.5,,"COc1ccc(-n2ncc3c(NC(=O)c4cc(CNC(=O)C5CCCC5)ccc4Cl)cccc32)cn1 [Example 270, 2-Chloro-5-{[(cyclopentylcarbonyl)amino]methyl}-N-[1-(6-methoxypyridin-3-yl)-1H-indazol-4-yl]benzamide]"
,,20.9,3.6,"Cc1ncc(-n2ncc3c(NC(=O)c4cc(CNC(=O)C(C)(C)C)ccc4Cl)cccc32)cn1 [Example 52, 2-Chloro-5-{[(2,2-dimethylpropanoyl)amino]methyl}-N-[1-(2-methylpyrimidin-5-yl)-1H-indazol-4-yl]benzamide]"
,,4,0.2,"CCOc1cccc(-n2ncc3c(NC(=O)c4cc(CNC(=O)C(C)(C)C)ccc4Cl)cccc32)c1 [Example 66, 2-Chloro-5-{[(2,2-dimethylpropanoyl)amino]methyl}-N-[1-(3-ethoxyphenyl)-1H-indazol-4-yl]benzamide]"
68,100,0.6,,"O=C(Nc1cccc2c1cnn2-c1ccc(OC(F)(F)F)cc1)c1cc(CNC(=O)C2(C(F)(F)F)CC2)ccc1Cl [Example 116, 2-Chloro-N-{1-[4-(trifluoromethoxy)phenyl]-1H-indazol-4-yl}-5-[({[1-(trifluoromethyl)cyclopropyl]carbonyl}amino)methyl]benzamide]"
,,20.2,1.2,"CCn1ncc2c(NC(=O)c3cc(CNC(=O)C(C)(C)C)ccc3Cl)cccc21 [Example 113, 2-Chloro-5-{[(2,2-dimethylpropanoyl)amino]methyl}-N-(1-ethyl-1H-indazol-4-yl)benzamide]"
63,68,799,,"Cn1ncc2c(NC(=O)c3cc(CNS(=O)(=O)C4CC4)ccc3Cl)cccc21 [Example 208, 2-Chloro-5-{[(cyclopropylsulfonyl)amino]methyl}-N-(1-methyl-1H-indazol-4-yl)benzamide]"
,,11.5,6.2,"CC(C)(C)C(=O)NCc1ccc(Cl)c(C(=O)Nc2cccc3c2cnn3-c2ccc(C#N)nc2)c1 [Example 72, 2-Chloro-N-[1-(6-cyanopyridin-3-yl)-1H-indazol-4-yl]-5-([(2,2-dimethylpropanoyl)amino]methyl)benzamide]"
70,100,4.2,,"COCC(=O)NCc1ccc(Cl)c(C(=O)Nc2cccc3c2cnn3-c2ccc(Cl)cc2)c1 [Example 148, 2-Chloro-N-[1-(4-chlorophenyl)-1H-indazol-4-yl]-5-([(methoxyacetyl)amino]methyl)benzamide]"
,,260,71.1,"CC(C)(C)C(=O)NCc1ccc(Cl)c(C(=O)Nc2cccc3c2cnn3-c2ccc(CO)nc2)c1 [Example 75, 2-Chloro-5-{[(2,2-dimethylpropanoyl)amino]methyl}-N-{1-[6-(hydroxymethyl)pyridin-3-yl]-1H-indazol-4-yl}benzamide]"
65,100,2.6,,"O=C(Nc1cccc2c1cnn2-c1cccc(C(F)(F)F)c1)c1cc(CNC(=O)C2(O)CC2)ccc1Cl [Example 221, 2-Chloro-5-({[(1-hydroxycyclopropyl)carbonyl]amino}methyl)-N-{1-[3-(trifluoromethyl)phenyl]-1H-indazol-4-yl}benzamide]"
,,183,23.6,"Cc1ncccc1-n1ncc2c(NC(=O)c3cc(CNC(=O)C(C)(C)C)ccc3Cl)cccc21 [Example 56, 2-Chloro-5-{[(2,2-dimethylpropanoyl)amino]methyl}-N-[1-(2-methylpyridin-3-yl)-1H-indazol-4-yl]benzamide hydrochloride]"
,,6.2,9.5,"Cc1ccc(-n2ncc3c(NC(=O)c4cc(CNC(=O)C(C)(C)C)ccc4Cl)cccc32)cn1 [Example 54, 2-Chloro-5-{[(2,2-dimethylpropanoyl)amino]methyl}-N-[1-(6-methylpyridin-3-yl)-1H-indazol-4-yl]benzamide hydrochloride]"
